Assay results reported in patent US20240208986A1, “PHENYL AZEPINES AS RIPK1 INHIBITORS AND METHODS OF USE THEREOF” (Merck Sharp & Dohme LLC, priority 2021, published 2024).

Target: RIPK1 (recombinant GST-RIPK1 kinase domain, residues 1-327) (Homo sapiens (Human), UniProt Q13546)
Test: RIPK1-ADP-Glo Enzymatic Assay
Assay type: biochemical
Conditions: 25 nM GST-RIPK1, 300 μM ATP, 3 μM dephosphorylated-MBP; 30 minutes pre-incubation, 150 minutes reaction; ten-point titration
Method: The enzymatic activity of RIPK1 is measured using an assay derived from ADP-Glo kit (™Promega), which provides a luminescent-based ADP detection system. Specifically, the ADP generated by RIPK1 kinase is proportionally detected as luminescent signals in a homogenous fashion. In this context, the assessment of the inhibitory effect of small molecules (EC50) is measured by the effectiveness of the compounds to inhibit the ATP to ADP conversion by RIPK1.
In this assay, the potency (EC50) of each compound was determined from a ten-point (1:3 serial dilution; top compound concentration of 100000 nM) titration curve using the following outlined procedure. To each well of a white ProxiPlus 384 well-plate, 30 nL of compound (1% DMSO in final assay volume of 3 μL) was dispensed, followed by the addition of 2 μL of 1× assay buffer (25 mM Hepes 7.3, 20 mM MgCl2, 50 mM NaCl, 1 mM DTT, 0.005% Tween20, and 0.02% BSA) containing 37.5 nM of GST-RIPK1 (recombinant GST-RIPK1 kinase domain (residues 1-327) enzyme produced from baculovirus-transfected Sf21 cells: MW=62 kDa). Plates were placed in an ambient temperature humidified chamber for a 30 minutes pre-incubation with compound. Subsequently, each reaction was initiated by the addition of 1 μL 1× assay buffer containing 900 μM ATP and 3 μM dephosphorylated-MBP substrate. The final reaction in each well of 3 μL consists of 25 nM of GST-RIPK1, 300 μM ATP, and 3 μM dephosphorylated-MBP. Kinase reactions were allowed to proceed for 150 minutes prior to adding ADP-Glo reagents per Promega's outlined kit protocol. Dose-response curves were generated by plotting percent effect (% product conversion; Y-axis) vs. Log10 compound concentrations (X-axis). EC50 values were calculated using a non-linear regression, four-parameters sigmoidal dose-response model.

RIPK1 (recombinant GST-RIPK1 kinase domain, residues 1-327), sequence (Q13546 1-327): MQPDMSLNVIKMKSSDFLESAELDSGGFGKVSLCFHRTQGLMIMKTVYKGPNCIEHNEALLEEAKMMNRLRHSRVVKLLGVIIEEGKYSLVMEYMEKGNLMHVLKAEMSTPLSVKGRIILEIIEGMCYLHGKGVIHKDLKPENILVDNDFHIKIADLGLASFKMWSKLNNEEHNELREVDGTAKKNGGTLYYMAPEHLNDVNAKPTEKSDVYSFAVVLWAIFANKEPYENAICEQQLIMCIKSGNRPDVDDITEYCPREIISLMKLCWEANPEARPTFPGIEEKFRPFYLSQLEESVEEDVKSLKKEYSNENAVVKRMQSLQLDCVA

IC50 [nM] | Structure (SMILES)
313 | CC1(C(=O)N2C[C@@H]3C[C@H]2c2ccccc2O3)CC1(F)F (mixture of isomers) [Compound 1-14, [(R and S)-2,2-difluoro-1-methylcyclopropyl]-[(2S,5S)-2,3-dihydro-2,5-methano-1,4-benzoxazepin-4(5H)-yl]methanone]
62 | CC1(C(=O)N2C[C@@H]3C[C@H]2c2ccccc2O3)CC1(Cl)Cl (mixture of isomers) [Compound 1-20, [(R and S)-2,2-dichloro-1-methylcyclopropyl]-[(2S,5S)-2,3-dihydro-2,5-methano-1,4-benzoxazepin-4(5H)-yl]methanone]
921 | CC1(C)CCC1C(=O)N1C[C@@H]2C[C@H]1c1ccccc1O2 (mixture of isomers) [Compound 1-27, [(2S,5S)-2,3-dihydro-2,5-methano-1,4-benzoxazepin-4(5H)-yl]-[(R and S)-2,2-dimethylcyclobutyl] methanone]
391 | C[C@H]1CC[C@@](C)(C(=O)N2C[C@@H]3C[C@H]2c2ccccc2O3)C1(C)C (racemic) [Compound 1-32, [(2S,5S)-2,3-dihydro-2,5-methano-1,4-benzoxazepin-4(5H)-yl][(1R,3S and 1S,3R)-1,2,2,3-tetramethylcyclopentyl] methanone]
220 | O=C(C1CCCCC12CC2)N1C[C@@H]2C[C@H]1c1ccccc1O2 (mixture of isomers) [Compound 1-35, [(2S,5S)-2,3-dihydro-2,5-methano-1,4-benzoxazepin-4(5H)-yl]-[(R and S)-spiro[2.5]octan-4-yl]methanone]
393 | CC1(C(=O)N2C[C@@H]3C[C@H]2c2ccccc2O3)CCOC1 (mixture of isomers) [Compound 1-50, [(2S,5S)-2,3-dihydro-2,5-methano-1,4-benzoxazepin-4(5H)-yl]-[(R and S)-3-methyloxolan-3-yl]methanone]
267 | O=C(N1C[C@H]2Cc3ccccc3[C@@H]1C2)C12CCC(C(F)(F)F)(CC1)C2 (single isomer, unassigned) [Compound 3-4]
6580 | C[C@@]12C[C@@H](c3ccccc3O1)N(C(=O)C13CCC(CC1)C3)C2 (single isomer, unassigned) [Compound 3-7]
3980 | C[C@@]12C[C@@H](c3ccccc3O1)N(C(=O)C13CCC(F)(CC1)C3)C2 (single isomer, unassigned) [Compound 3-8]
2410 | C[C@@]12C[C@@H](c3ccccc3O1)N(C(=O)C13CCC(C(F)(F)F)(CC1)C3)C2 (single isomer, unassigned) [Compound 3-9]
863 | O=C(NCc1ccc(Cl)cc1)C(=O)N1CC2C[C@H]1c1ccccc1O2 (stereo in doubt) [Compound 1-56, N-[(4-chlorophenyl)methyl]-2-[(2R,5S)-2,3-dihydro-2,5-methano-1,4-benzoxazepin-4(5H)-yl]-2-oxoacetamide]
48 | CC(C)(C)C(=O)N1C[C@@H]2C[C@H]1c1ccccc1O2 [Compound 1-1, 1-((2S,5S)-2,3-dihydro-2,5-methanobenzo[f][1,4]oxaze-pin-4(5H)-yl)-2,2-dimethylpropan-1-one]
61 | CC(C)(C(=O)N1C[C@@H]2C[C@H]1c1ccccc1O2)C(F)F [Compound 1-2, 1-((2S,5S)-2,3-dihydro-2,5-methanobenzo[f][1,4]oxaze-pin-4(5H)-yl)-3,3-difluoro-2,2-dimethylpropan-1-one]
97 | CC1(C(=O)N2C[C@@H]3C[C@H]2c2ccccc2O3)CCC1 [Compound 1-3, ((2S,5S)-2,3-dihydro-2,5-methanobenzo[f][1,4]oxaze-pin-4(5H)-yl)(1-methylcyclobutyl)methanone]
33 | O=C(N1C[C@@H]2C[C@H]1c1ccccc1O2)C12CCC(CC1)C2 [Compound 1-4, bicyclo[2.2.1]heptan-1-yl((2S,5S)-2,3-dihydro-2,5-methanobenzo[f][1,4]oxaze-pin-4(5H)-yl)methanone]
42 | CC1(C(=O)N2C[C@@H]3C[C@H]2c2ccccc2O3)CCCCC1 [Compound 1-5, ((2S,5S)-2,3-dihydro-2,5-methanobenzo[f][1,4]oxaze-pin-4(5H)-yl)(1-methylcyclohexyl)methanone]

IC50 [nM] | Structure (SMILES)
43 | CC1(C(=O)N2C[C@@H]3C[C@H]2c2ccccc2O3)CCCC1 [Compound 1-6, ((2S,5S)-2,3-dihydro-2,5-methanobenzo[f][1,4]oxaze-pin-4(5H)-yl)(1-methylcyclopentyl) methanone]
217 | CC(C)(COC(F)(F)F)C(=O)N1C[C@@H]2C[C@H]1c1ccccc1O2 [Compound 1-7, 1-((2S,5S)-2,3-dihydro-2,5-methanobenzo[f][1,4]oxaze-pin-4(5H)-yl)-2,2-dimethyl-3-(trifluoromethoxy)propan-1-one]
641 | O=C(C1CCCCC1)N1C[C@@H]2C[C@H]1c1ccccc1O2 [Compound 1-8, cyclohexyl((2S,5S)-2,3-dihydro-2,5-methanobenzo[f][1,4]oxaze-pin-4(5H)-yl)methanone]
381 | O=C(N1C[C@@H]2C[C@H]1c1ccccc1O2)C1(F)CCCCC1 [Compound 1-9, ((2S,5S)-2,3-dihydro-2,5-methanobenzo[f][1,4]oxaze-pin-4(5H)-yl)(1-fluorocyclohexyl)methanone]
138 | O=C(N1C[C@@H]2C[C@H]1c1ccccc1O2)C12CCCC(C1)C2 [Compound 1-10, bicyclo[3.1.1]heptan-1-yl((2S,5S)-2,3-dihydro-2,5-methanobenzo[f][1,4]oxaze-pin-4(5H)-yl)methanone]
244 | CC(C)(C(=O)N1C[C@@H]2C[C@H]1c1ccccc1O2)C1CCC1 [Compound 1-11, 2-cyclobutyl-1-[(2S,5S)-2,3-dihydro-2,5-methano-1,4-benzoxazepin-4(5H)-yl]-2-methylpropan-1-one]
86 | CC(F)(F)C1(C(=O)N2C[C@@H]3C[C@H]2c2ccccc2O3)CCC1 [Compound 1-12, [1-(1,1-difluoroethyl)cyclobutyl] [(2S,5S)-2,3-dihydro-2,5-methano-1,4-benzoxazepin-4(5H)-yl]methanone]
104 | O=C(N1C[C@@H]2C[C@H]1c1ccccc1O2)C1(C(F)F)CCCC1 [Compound 1-13, [1-(difluoromethyl)cyclopentyl] [(2S,5S)-2,3-dihydro-2,5-methano-1,4-benzoxazepin-4(5H)-yl]methanone]
96 | O=C(N1C[C@@H]2C[C@H]1c1ccccc1O2)C1(C(F)(F)F)CCC1 [Compound 1-16, [(2S,5S)-2,3-dihydro-2,5-methano-1,4-benzoxazepin-4(5H)-yl][1-(trifluoromethyl)cyclobutyl] methanone]
47 | CC(F)(F)C(C)(C)C(=O)N1C[C@@H]2C[C@H]1c1ccccc1O2 [Compound 1-17, 1-[(2S,5S)-2,3-dihydro-2,5-methano-1,4-benzoxazepin-4(5H)-yl]-3,3-difluoro-2,2-dimethylbutan-1-one]
73 | CC(C)(C(=O)N1C[C@@H]2C[C@H]1c1ccccc1O2)C(F)(F)F [Compound 1-18, 1-[(2S,5S)-2,3-dihydro-2,5-methano-1,4-benzoxazepin-4(5H)-yl]-3,3,3-trifluoro-2,2-dimethylpropan-1-one]
499 | O=C(N1C[C@@H]2C[C@H]1c1ccccc1O2)C1(F)CCCC1 [Compound 1-19, [(2S,5S)-2,3-dihydro-2,5-methano-1,4-benzoxazepin-4(5H)-yl](1-fluorocyclopentyl)methanone]
888 | CC(C)(C)CC(=O)N1C[C@@H]2C[C@H]1c1ccccc1O2 [Compound 1-21, 1-[(2S,5S)-2,3-dihydro-2,5-methano-1,4-benzoxazepin-4(5H)-yl]-3,3-dimethylbutan-1-one]
21 | CCC(C)(C)C(=O)N1C[C@@H]2C[C@H]1c1ccccc1O2 [Compound 1-22, 1-[(2S,5S)-2,3-dihydro-2,5-methano-1,4-benzoxazepin-4(5H)-yl]-2,2-dimethylbutan-1-one]
234 | O=C(N1C[C@@H]2C[C@H]1c1ccccc1O2)C12CC3CC(CC(C3)C1)C2 [Compound 1-23, [(2S,5S)-2,3-dihydro-2,5-methano-1,4-benzoxazepin-4(5H)-yl][(3R,5R,7R)-tricyclo[3.3.1.1~3,7~]decan-1-yl]methanone]

Structure (SMILES) | IC50 [nM]
CC(C)(C)C(=O)N1C2CCC1c1ccccc1OC2 (single isomer, unassigned) [Compound 3-1, 2,2-dimethyl-1-((3S,6R or 3R,6S)-3,4,5,6-tetrahydro-2H-3,6-epiminobenzo[b]oxocin-11-yl)propan-1-one] | 281
CC1(C)C(C(=O)N2C[C@@H]3C[C@H]2c2ccccc2O3)C1(C)C [Compound 1-15, [(2S,5S)-2,3-dihydro-2,5-methano-1,4-benzoxazepin-4(5H)-yl](2,2,3,3-tetramethylcyclopropyl) methanone] | 981
